The nature of data set [1]: Solubility of the product in solvents. Format: physicochemical. As to conditions: free base (oily product).
The test system of the next data set is souris Swiss. In words: Acute oral toxicity in mice (Lichfield and Wilcoxon method). The class given is in vivo. As to conditions: mortality over 7 days. The text has this:
La toxicité aiguë des composés de l'invention a été déterminée par voie orale chez les souris Swiss des deux sexes, par la méthode de Lichfield et Wilcoxon. Des groupes de cinq souris de chaque sexe ont été traités par des doses croissantes du composé étudié et le taux de mortalité a été déterminé au cours des 7 jours suivant l'administration du produit.
On a trouvé les doses léthales (DL₅₀ en mg/kg) suivantes : […]

Where [2] appears, read: in benzène, éthanol, acétone, chloroforme.
[3] abbreviates: in eau, n-hexane, éther isopropylique, éther éthylique.

Turning to `Brc1ccc(C(Cn2ccnc2)c2ccccc2)cc1` (centres unmarked) [Exemple 1, 1-[2-(4-bromophényl)-2-phényléthyl]-1H-imidazole], the solubilité result in data set [1] (setting [2]) was “soluble”; in data set [1] (setting [3]), “insoluble”. The DL₅₀ in the data set with souris Swiss (souris femelle) is 375 (350-400) mg/kg; with souris Swiss (souris mâle), 450 (400-475) mg/kg.

As to `Fc1ccc(C(Cn2ccnc2)c2ccccc2)cc1` (centres unmarked) [Exemple 2, 1-[2-(4-fluorophényl)-2-phényl éthyl]-1H-imidazole], the figures for the solubilité entry in data set [1] (setting [2]) and in data set [1] (setting [3]) were “soluble” and “insoluble”, respectively. Besides, the results for the DL₅₀ in the data set on souris Swiss (souris femelle) and in the data set on souris Swiss (souris mâle) were 465 (438-502) mg/kg and 524 (457-538) mg/kg, respectively.

The values above are taken from patent EP0276583A1, “Imidazole derivatives, processes for their preparation and their fungicidal properties” (Instituto de Investigacion Y Desarrollo Quimico Biologico …, priority 1987, dated 1988).
